From patent US20170042193A1, “Pet Food Compositions Having Antimicrobial Activity” (priority 2010, published 2017)
Read-outs that look alike come from different tables or passages of the source.

Columns and labels:
Format in all cases: cell-based
[1] = test system: Salmonella (S. aarhus, S. muenster E1 and S. worthington); parameters: key to Salmonella growth or inhibition (MIC test): −: negative sign means inhibition; +: positive sign denotes growth
Method: The minimum inhibitory concentration (MIC) of an antimicrobial ingredient is defined as the maximum dilution of the product that will still inhibit the growth of Salmonella. Serial dilutions (0-3%, except for oregano 0-0.3%) were made of the AMI in bacterial growth media and poured in test tubes. The test organisms (S. aarhus, S. muenster E1 and S. worthington) were then added to the dilutions of the AMI ingredients to a final concentration of 10^6 or 10^3 cfu/g, incubated overnight at 30° C., and scored for growth by turbidity or plate counts.
Minimum Inhibitory Concentration was conducted for 10^3 and 10^6 cfu/g Salmonella. Results reported as negative sign means inhibition, while positive sign denotes growth.

[2] = test system: Salmonella (S. aarhus, S. muenster E1 & S. worthington); conditions: for Zone of Inhibition-Diameter, Mean / Zone of Inhibition-Diameter, REP I Plate 1 / Zone of Inhibition-Diameter, REP I Plate 2 / Zone of Inhibition-Diameter, REP II Plate 1 / Zone of Inhibition-Diameter, REP II Plate 2 / Zone of Inhibition-Diameter, REP III Plate 1 / Zone of Inhibition-Diameter, REP III Plate 2: kibble coated
Method: The kibble diffusion test has similar principles as the disk diffusion method. […] […] Efficacy of the AMI was validated by measuring how closely the Salmonella cultures grew with respect to the saturated kibbles.
Commercial canine and feline adult pet food compositions in the form of kibbles were coated with potential AMIs. […] After incubation overnight at 30° C., plates were analyzed for presence of clear zones around the kibbles.

Salmonella = assay: Scale up challenge testing of canine kibble with Propionic Acid at simulated process steps
Description: Canine adult pet food compositions with Propionic Acid were produced. Samples were taken to simulate different steps of the process. […] Moisture target was about 20%. 2) The dryer temperature was reduced and belt speed increased. […] Moisture target was about 15%. […] Moisture target was about 8%.
Kibble with intermediate moisture (15% and 20%) was cooled to prevent condensation in the bag and not encourage mold growth.
Extruder, dryer, uncoated base and finished product samples (10 kg each) were inoculated with Salmonella 10^6 cfu/g.
Uncoated base samples were coated with topicals (palatants and fat) after inoculation (Table 10).
Samples were split and incubated in a 30, 50 or 70° C. incubator.
Samples at 70° C. were plated after 0, 15, 30 and 60 minutes.
Samples at 50° C. were plated after 0, 30, 60 and 240 minutes.
Samples at 30° C. were plated after 0, 1, 2, 3, 8 and 15 days.

[3] = 10^3 cfu/g Salmonella, antimicrobial level 0.03%
[4] = 10^3 cfu/g Salmonella, antimicrobial level 0.15%
[5] = 10^3 cfu/g Salmonella, antimicrobial level 0.3%
[6] = 10^3 cfu/g Salmonella, antimicrobial level 0.9%
[7] = 10^3 cfu/g Salmonella, antimicrobial level 1.5%
[8] = 10^3 cfu/g Salmonella, antimicrobial level 2.1%
[9] = 10^3 cfu/g Salmonella, antimicrobial level 3%
[10] = 10^3 cfu/g Salmonella, antimicrobial level […]
[11] = 10^6 cfu/g Salmonella, antimicrobial level 0.03%
[12] = 10^6 cfu/g Salmonella, antimicrobial level 0.15%
[13] = 10^6 cfu/g Salmonella, antimicrobial level 0.3%
[14] = 10^6 cfu/g Salmonella, antimicrobial level 0.9%
[15] = 10^6 cfu/g Salmonella, antimicrobial level 1.5%
[16] = 10^6 cfu/g Salmonella, antimicrobial level 2.1%
[17] = 10^6 cfu/g Salmonella, antimicrobial level 3%
[18] = 10^6 cfu/g Salmonella, antimicrobial level […]

## CCCCCCCCCCCC(=O)N[C@@H](CCCN=C(N)N)C(=O)OCC [Lauric Arginate]
[1]; 10^3 and 10^6 cfu/g Salmonella
  MIC needed to inhibit Salmonella: 0.15%
[1]; [3]
  Salmonella growth or inhibition (MIC test): −
[1]; [4]
  Salmonella growth or inhibition (MIC test): −
[1]; [5]
  Salmonella growth or inhibition (MIC test): −
[1]; [6]
  Salmonella growth or inhibition (MIC test): −
[1]; [7]
  Salmonella growth or inhibition (MIC test): −
[1]; [8]
  Salmonella growth or inhibition (MIC test): −
[1]; [9]
  Salmonella growth or inhibition (MIC test): −
[1]; [10]
  Salmonella growth or inhibition (MIC test): −
[1]; [11]
  Salmonella growth or inhibition (MIC test): −
[1]; [12]
  Salmonella growth or inhibition (MIC test): −
[1]; [13]
  Salmonella growth or inhibition (MIC test): −
[1]; [14]
  Salmonella growth or inhibition (MIC test): −
[1]; [15]
  Salmonella growth or inhibition (MIC test): −
[1]; [16]
  Salmonella growth or inhibition (MIC test): −
[1]; [17]
  Salmonella growth or inhibition (MIC test): −
[1]; [18]
  Salmonella growth or inhibition (MIC test): −

## CCC(=O)O [Propionic Acid]
[1]; [3]
  Salmonella growth or inhibition (MIC test): +
[1]; [4]
  Salmonella growth or inhibition (MIC test): +
[1]; [5]
  Salmonella growth or inhibition (MIC test): +
[1]; [6]
  Salmonella growth or inhibition (MIC test): −
[1]; [7]
  Salmonella growth or inhibition (MIC test): −
[1]; [8]
  Salmonella growth or inhibition (MIC test): −
[1]; [9]
  Salmonella growth or inhibition (MIC test): −
[1]; [10]
  Salmonella growth or inhibition (MIC test): −
[1]; [11]
  Salmonella growth or inhibition (MIC test): +
[1]; [12]
  Salmonella growth or inhibition (MIC test): +
[1]; [13]
  Salmonella growth or inhibition (MIC test): −
[1]; [14]
  Salmonella growth or inhibition (MIC test): −
[1]; [15]
  Salmonella growth or inhibition (MIC test): −
[1]; [16]
  Salmonella growth or inhibition (MIC test): −
[1]; [17]
  Salmonella growth or inhibition (MIC test): −
[1]; [18]
  Salmonella growth or inhibition (MIC test): −
[2]; coated kibbles, overnight at 30° C.
  inhibition of Salmonella, clear zone around the kibbles: inhibited Salmonella
[2]; 0.65%
  Zone of Inhibition-Diameter, Mean: 9 mm
  Zone of Inhibition-Diameter, REP I Plate 1: 8 mm
  Zone of Inhibition-Diameter, REP I Plate 2: 10 mm
  Zone of Inhibition-Diameter, REP II Plate 1: 5 mm
  Zone of Inhibition-Diameter, REP II Plate 2: 10 mm
  Zone of Inhibition-Diameter, REP III Plate 1: 13 mm
  Zone of Inhibition-Diameter, REP III Plate 2: 5 mm
[2]; 2%
  Zone of Inhibition-Diameter, Mean: 40 mm
  Zone of Inhibition-Diameter, REP I Plate 1: 47 mm
  Zone of Inhibition-Diameter, REP I Plate 2: 49 mm
  Zone of Inhibition-Diameter, REP II Plate 1: 47 mm
  Zone of Inhibition-Diameter, REP II Plate 2: 43 mm
  Zone of Inhibition-Diameter, REP III Plate 1: 30 mm
  Zone of Inhibition-Diameter, REP III Plate 2: 25 mm
[2]; 3%
  Zone of Inhibition-Diameter, Mean: 31 mm
  Zone of Inhibition-Diameter, REP I Plate 1: 30 mm
  Zone of Inhibition-Diameter, REP I Plate 2: 28 mm
  Zone of Inhibition-Diameter, REP II Plate 1: 31 mm
  Zone of Inhibition-Diameter, REP II Plate 2: 34 mm
  Zone of Inhibition-Diameter, REP III Plate 1: 33 mm
  Zone of Inhibition-Diameter, REP III Plate 2: 30 mm
[2]; 3% (in CWG)
  Zone of Inhibition-Diameter, Mean: 31 mm
  Zone of Inhibition-Diameter, REP I Plate 1: 34 mm
  Zone of Inhibition-Diameter, REP I Plate 2: 34 mm
  Zone of Inhibition-Diameter, REP II Plate 1: 28 mm
  Zone of Inhibition-Diameter, REP II Plate 2: 31 mm
  Zone of Inhibition-Diameter, REP III Plate 1: 28 mm
  Zone of Inhibition-Diameter, REP III Plate 2: 31 mm
[2]; […]
  Zone of Inhibition-Diameter, Mean: 21 mm
  Zone of Inhibition-Diameter, REP I Plate 1: 25 mm
  Zone of Inhibition-Diameter, REP I Plate 2: 18 mm
  Zone of Inhibition-Diameter, REP II Plate 1: 25 mm
  Zone of Inhibition-Diameter, REP II Plate 2: 25 mm
  Zone of Inhibition-Diameter, REP III Plate 1: 13 mm
  Zone of Inhibition-Diameter, REP III Plate 2: 20 mm
Salmonella; 1, 2 and 3% topically applied
  reduction of Salmonella compared with untreated control: reduced Salmonella by two log cycles more than an untreated control
Salmonella; 2 and 3% topical/preconditioner
  reduction of Salmonella compared with untreated control: reduced Salmonella by two log cycles more than an untreated control
Salmonella; 3% in preconditioner
  reduction of Salmonella compared with untreated control: reduced Salmonella by two log cycles more than an untreated control
Salmonella; concentrations of 1%, 2%, and 3%
  efficacy against Salmonella at points of processing: efficacious against Salmonella at all points of processing
Salmonella; finished product contaminated after enrober, 2% and 3% added topical/preconditioner
  effect on Salmonella: positive effect
Salmonella; finished product contaminated after enrober, topical application of 1%, 2% and 3%
  effect on Salmonella: positive effect
Salmonella; product coated and inoculated (finished product contaminated after enrober), 3% in the preconditioner
  effect on Salmonella: some immediate effect
Salmonella; product simulating entry to the airlift, evaporative cooling, dryer after surface cooling, 1%, 2%, and 3%
  reduction of Salmonella compared with control: Reduction of two logs more than control
